Experiment [1] concerns cell lines MDA-MB-453 and MCF7. Kind of experiment: Apoptosis assay, summary over the cell lines without constitutive Stat3 activity. Type of experiment: cell-based. Particulars: Homo sapiens, concentrations up to 300 µM, read-out: EC50 apoptosis induction, MDA-MB-453 and MCF7. Here is the method:
Human breast carcinoma cell lines MDA-MB-468, MDA-MB-231, MBA-MD-435 and MCF7 were kindly provided by Dr. Powel H. Brown (Breast Cancer Center, Baylor College of Medicine). Breast cancer cell line, MDA-MB-453 was kindly provided by Dr. Shou Jiang (Breast Cancer Center, Baylor College of Medicine). All cell lines were grown in DMEM medium supplemented with 10% fetal bovine serum (FBS), 25,000 units penicillin G, 25,000 µg streptomycin, and 131.4 mg L-Glutamine and cultured in the incubator under the condition of 95% air, 5% CO2 at 37°C [33]. Cells were seeded at 2,500 cells/cm^2 into 12-well plates. At 80% confluency, cells were washed with PBS and supplemented with fresh medium containing compound or the topoisomerase I-inhibitor, camptothecin, at 0, 0.1, 0.3, 1, 3, 10, 30, 100, 300 µM. At 24 hours, treatment was terminated by removing the medium from each well. Cells were lysed with cell lysis buffer (600 µl for 30 minutes at 25°C). Cell lysate (200 µl) was centrifuged at 200 g for 10 minutes and 20 µl of each supernatant was assayed for nucleosomes using the Cell Death Detection ELISA (Roche Applied Science) as described by the manufacturer. The percent maximum nucleosome level was calculated by dividing the nucleosome level by the maximum nucleosome level achieved in the assay and multiplying by 100.
MDA-MB-468 (panel A), MDA-MB-231 (panel B), MDA-MB-435 (panel C), MCF7 (panel D) and MDA-MB-453 (panel E) were seeded in 12-well plates, grown overnight then treated with the indicated compound for 24 hr. Cells were centrifuged and the supernatants assayed for nucleosome levels by ELISA. The percent maximum nucleosome level was calculated (nucleosome level ÷ maximum nucleosome level achieved in the assay ×100) and plotted as a function of the log compound concentration. The best-fitting curve was determined using 4-ParameterLogistic Model/Dose Response One Site/XLfit 4.2, IDBS software and was used to determine the EC50 value (Table 3).

Experiment [2] deals with IL-6-mediated phosphorylation of Stat3. The experiment in a line: Immunoblot of IL-6-mediated Stat3 phosphorylation in HepG2 cells. Type of experiment: cell-based. To be noted: Homo sapiens, compound 60 min, then IL-6 30 ng/ml 30 min, read-out: pStat3 IC50, inhibition of IL-6-mediated Stat3 phosphorylation. How it is done:
The human hepatocellular carcinoma cell line (HepG2) was grown in 6-well plates under standard conditions. Cells were pretreated with compounds (0, 1, 3, 10, 30, 100 and 300 µM) for 1 hour then stimulated under optimal conditions with either interleukin-6 (IL-6; 30 ng/ml for 30 min) to activate Stat3 or interferon gamma (IFN-γ; 30 ng/ml for 30 min) to activate Stat1 [28]. Cultures were then harvested and proteins extracted using high-salt buffer, as described. Briefly, extracts were mixed with 2× sodium dodecyl sulfate (SDS) sample buffer (125 mM Tris-HCL pH 6.8; 4% SDS; 20% glycerol; 10% 2-mercaptoethanol) at a 1∶1 ratio and heated for 5 minutes at 100°C. Proteins (20 µg) were separated by 7.5% SDS-PAGE and transferred to polyvinylidene fluoride (PVDF) membrane (Millipore, Waltham, MA) and immunoblotted. Prestained molecular weight markers (BioRad; Hercules, CA) were included in each gel. Membranes were probed serially with antibody against Stat1 pY701 or Stat3 pY705 followed by antibody against Stat1 or Stat3 (Transduction labs, Lexington, KY) then antibody against β–actin (Abcam, Cambridge, MA). Membranes were stripped between antibody probing using Restore™ Western Blot Stripping Buffer (Thermo Fisher Scientific Inc., Waltham, MA) per the manufacturer's instructions. Horseradish peroxidase-conjugated goat-anti-mouse IgG was used as the secondary antibody (Invitrogen Carlsbad, CA) and the membranes were developed with enhanced chemiluminescence (ECL) detection system (Amersham Life Sciences Inc.; Arlington Heights, IL.).
Figure 2 Effect of compounds on ligand-mediated Stat3 and Stat1 phosphorylation. […] Cells were then stimulated with IL-6 (30 ng/ml) for 30 min. Protein extracts of cells were separated by SDS-PAGE, blotted and developed serially with antibodies to pStat3, total Stat3 and β-actin. Blots were stripped between each antibody probing. Band intensities were quantified by densitometry. […] The best-fitting curve was determined using 4-Parameter Logistic Model/Dose Response/XLfit 4.2, IDBS software and was used to calculate the IC50 value (Table 1). […]
(Immunoblotting shows a protein as a band on a membrane.)

For orientation: EC50 means the midpoint of the concentration-response curve. In general, IC50 refers to the midpoint of a concentration-inhibition curve. Consider `O=C(O)c1ccc(C=CC(=O)c2ccc3c(c2)OCCO3)cc1` [Cpd3, 4-[3-(2,3-dihydro-1,4-benzodioxin-6-yl)-3-oxo-1-propen-1-yl]benzoic acid], for which the EC50 in experiment [1] was greater than 300 µM. Moreover, the half-maximal inhibitory concentration (IC50) in experiment [2] turned out to be 91 µM.

(Values after publication PMC2653189 (PLoS ONE, 2009).)
